In ChEMBL document CHEMBL5360570, “Discovery of pyrazolo[3,4-b]pyridine derivatives as novel and potent Mps1 inhibitors for the treatment of cancer” (Eur J Med Chem, 2023):

Tests used:
[1] = target: Receptor-type tyrosine-protein kinase FLT3 (Homo sapiens) (UniProt P36888); experiment: Inhibition of FLT3 (unknown origin) assessed as residual activity at 1 uM relative to control
[2] = Metabolic stability in human liver microsome assessed as parent compound remaining preincubated for 10 mins followed by NADPH addition and measured at 5 mins by LC-MS/MS analysis; format: ADME; conditions: liver microsomes, time 15 min, read-out: Stability
[3] = target: Activated CDC42 kinase 1 (Homo sapiens) (UniProt Q07912); experiment: Inhibition of ACK1 (unknown origin) assessed as residual activity at 1 uM relative to control
[4] = MRT (0 to t) in Sprague-Dawley rat at 10 mg/kg, po measured upto 24 hrs by LC-MS/MS analysis; format: ADME, organism-based; conditions: in vivo
[5] = test system: ALK tyrosine kinase receptor (Homo sapiens), Q9UM73 [R1275Q]; experiment: Inhibition of ALK R1275Q mutant (unknown origin) assessed as residual activity at 1 uM relative to control
[6] = test system: EML4-ALK (Homo sapiens), Q9UM73+Q9HC35 [F1174L]; experiment: Inhibition of ALK F1174L mutant (unknown origin)/EML4 (unknown origin) assessed as residual activity at 1 uM relative to control; format: protein assay
[7] = Metabolic stability in human liver microsome assessed as parent compound remaining preincubated for 10 mins followed by NADPH addition and measured at 30 mins by LC-MS/MS analysis; format: ADME; conditions: liver microsomes, time 40 min, read-out: Stability
[8] = Oral bioavailability in Sprague-Dawley rat at 10 mg/kg measured upto 24 hrs by LC-MS/MS analysis; format: ADME, organism-based; conditions: in vivo
[9] = test system: ALK tyrosine kinase receptor (Homo sapiens), Q9UM73 [G1202R]; experiment: Inhibition of ALK G1202R mutant (unknown origin) assessed as residual activity at 1 uM relative to control
[10] = target: Non-receptor tyrosine-protein kinase TNK1 (Homo sapiens) (UniProt Q13470); experiment: Inhibition of TNK1 (unknown origin) assessed as residual activity at 1 uM relative to control
Chain of Non-receptor tyrosine-protein kinase TNK1 (Homo sapiens) (Q13470 whole entry): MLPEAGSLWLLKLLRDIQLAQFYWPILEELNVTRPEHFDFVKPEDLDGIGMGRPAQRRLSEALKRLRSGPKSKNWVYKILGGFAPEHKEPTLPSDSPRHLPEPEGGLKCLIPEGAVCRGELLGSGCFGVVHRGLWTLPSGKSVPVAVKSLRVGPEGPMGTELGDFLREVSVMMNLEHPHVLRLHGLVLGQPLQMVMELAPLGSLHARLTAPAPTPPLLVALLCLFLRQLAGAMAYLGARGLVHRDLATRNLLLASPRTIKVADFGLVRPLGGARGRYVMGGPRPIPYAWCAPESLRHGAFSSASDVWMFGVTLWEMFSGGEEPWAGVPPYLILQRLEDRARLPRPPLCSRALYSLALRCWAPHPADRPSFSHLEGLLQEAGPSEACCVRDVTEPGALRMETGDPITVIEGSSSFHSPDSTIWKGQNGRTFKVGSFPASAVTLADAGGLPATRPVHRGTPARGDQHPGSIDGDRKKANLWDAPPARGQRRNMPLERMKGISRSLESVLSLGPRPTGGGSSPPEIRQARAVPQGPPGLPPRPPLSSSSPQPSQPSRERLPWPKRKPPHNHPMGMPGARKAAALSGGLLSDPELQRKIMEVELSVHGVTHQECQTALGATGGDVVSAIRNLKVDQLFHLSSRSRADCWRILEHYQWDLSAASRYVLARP

ALK-TPM3 (Homo sapiens) = ALK-TPM3 (Homo sapiens) (UniProt Q9UM73+P06753); experiment: Inhibition of ALK-TPM3 (unknown origin) assessed as residual activity at 1 uM relative to control; format: protein assay
[11] = target: Tyrosine-protein kinase Fer (Homo sapiens) (UniProt P16591); experiment: Inhibition of FER (unknown origin) assessed as residual activity at 1 uM relative to control
MV4-11 = experiment: Antiproliferative activity against human MV4-11 cells assessed inhibition of cell growth incubated for 72 hrs by CCK-8 assay; format: functional, cell-based; conditions: MV4-11, 72 h
ALK-TPM1 (Homo sapiens) = ALK-TPM1 (Homo sapiens) (UniProt Q9UM73+P09493); experiment: Inhibition of ALK-TPM1 (unknown origin) assessed as residual activity at 1 uM relative to control; format: protein assay
[12] = Half life in Sprague-Dawley rat at 2 mg/kg, iv measured upto 24 hrs by LC-MS/MS analysis; format: ADME, organism-based; conditions: in vivo
[13] = test system: ALK tyrosine kinase receptor (Homo sapiens), Q9UM73 [F1174L]; experiment: Inhibition of ALK F1174L mutant (unknown origin) assessed as residual activity at 1 uM relative to control
[14] = test system: ALK tyrosine kinase receptor (Homo sapiens), Q9UM73 [L1152R]; experiment: Inhibition of ALK L1152R mutant (unknown origin) assessed as residual activity at 1 uM relative to control
HT-29 = experiment: Antiproliferative activity against human HT-29 cells assessed inhibition of cell growth incubated for 72 hrs by CCK-8 assay; format: functional, cell-based; conditions: HT-29, 72 h
[15] = test system: Fibroblast growth factor receptor 2 (Homo sapiens), P21802 [K526E]; experiment: Inhibition of FGFR2 K526E mutant (unknown origin) assessed as residual activity at 1 uM relative to control
Chain of Fibroblast growth factor receptor 2 (Homo sapiens), P21802 [K526E] (P21802 whole entry K526E): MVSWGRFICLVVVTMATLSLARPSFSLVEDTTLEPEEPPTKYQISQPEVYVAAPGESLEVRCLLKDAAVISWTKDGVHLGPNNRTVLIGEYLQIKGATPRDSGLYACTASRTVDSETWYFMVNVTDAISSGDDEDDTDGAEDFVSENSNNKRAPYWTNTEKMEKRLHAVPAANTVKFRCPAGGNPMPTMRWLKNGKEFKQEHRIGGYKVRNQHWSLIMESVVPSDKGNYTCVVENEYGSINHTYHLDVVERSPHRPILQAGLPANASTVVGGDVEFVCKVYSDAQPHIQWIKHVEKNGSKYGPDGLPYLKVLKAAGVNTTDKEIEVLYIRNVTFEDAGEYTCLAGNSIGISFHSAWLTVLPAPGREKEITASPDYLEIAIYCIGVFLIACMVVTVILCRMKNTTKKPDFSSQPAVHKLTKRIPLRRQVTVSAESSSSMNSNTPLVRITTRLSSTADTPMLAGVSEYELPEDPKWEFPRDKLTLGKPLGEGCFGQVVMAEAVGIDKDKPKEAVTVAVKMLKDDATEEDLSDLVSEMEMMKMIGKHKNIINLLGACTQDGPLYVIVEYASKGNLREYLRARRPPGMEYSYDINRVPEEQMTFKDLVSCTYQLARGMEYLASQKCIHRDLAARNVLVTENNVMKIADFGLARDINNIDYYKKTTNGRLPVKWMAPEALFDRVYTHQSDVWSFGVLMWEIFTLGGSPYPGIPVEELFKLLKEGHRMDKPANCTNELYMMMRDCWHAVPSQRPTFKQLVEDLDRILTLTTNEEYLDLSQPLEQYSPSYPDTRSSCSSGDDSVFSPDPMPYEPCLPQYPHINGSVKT

[16] = target: MAP/microtubule affinity-regulating kinase 4 (Homo sapiens) (UniProt Q96L34); experiment: Inhibition of MARK4 (unknown origin) assessed as residual activity at 1 uM relative to control
[17] = AUC (0 to t) in Sprague-Dawley rat at 2 mg/kg, iv measured upto 24 hrs by LC-MS/MS analysis; format: ADME, organism-based; parameters: dose 2 mg/kg, time < 24 hrs, route iv; conditions: in vivo
[18] = C0 in Sprague-Dawley rat at 2 mg/kg, iv measured upto 24 hrs by LC-MS/MS analysis; format: ADME, organism-based; conditions: in vivo
[19] = Antiproliferative activity against human RBE cells assessed inhibition of cell growth incubated for 72 hrs by CCK-8 assay; format: functional, cell-based
MDA-MB-468 = experiment: cells; format: functional, cell-based; conditions: Homo sapiens, MDA-MB-468, 72 h
Description: Antiproliferative activity against human MDA-MB-468 cells assessed inhibition of cell growth incubated for 72 hrs by CCK-8 assay

[20] = test system: ALK tyrosine kinase receptor (Homo sapiens), Q9UM73 [G1269A]; experiment: Inhibition of ALK G1269A mutant (unknown origin) assessed as residual activity at 1 uM relative to control
Chain of ALK tyrosine kinase receptor (Homo sapiens), Q9UM73 [G1269A] (Q9UM73 whole entry G1269A): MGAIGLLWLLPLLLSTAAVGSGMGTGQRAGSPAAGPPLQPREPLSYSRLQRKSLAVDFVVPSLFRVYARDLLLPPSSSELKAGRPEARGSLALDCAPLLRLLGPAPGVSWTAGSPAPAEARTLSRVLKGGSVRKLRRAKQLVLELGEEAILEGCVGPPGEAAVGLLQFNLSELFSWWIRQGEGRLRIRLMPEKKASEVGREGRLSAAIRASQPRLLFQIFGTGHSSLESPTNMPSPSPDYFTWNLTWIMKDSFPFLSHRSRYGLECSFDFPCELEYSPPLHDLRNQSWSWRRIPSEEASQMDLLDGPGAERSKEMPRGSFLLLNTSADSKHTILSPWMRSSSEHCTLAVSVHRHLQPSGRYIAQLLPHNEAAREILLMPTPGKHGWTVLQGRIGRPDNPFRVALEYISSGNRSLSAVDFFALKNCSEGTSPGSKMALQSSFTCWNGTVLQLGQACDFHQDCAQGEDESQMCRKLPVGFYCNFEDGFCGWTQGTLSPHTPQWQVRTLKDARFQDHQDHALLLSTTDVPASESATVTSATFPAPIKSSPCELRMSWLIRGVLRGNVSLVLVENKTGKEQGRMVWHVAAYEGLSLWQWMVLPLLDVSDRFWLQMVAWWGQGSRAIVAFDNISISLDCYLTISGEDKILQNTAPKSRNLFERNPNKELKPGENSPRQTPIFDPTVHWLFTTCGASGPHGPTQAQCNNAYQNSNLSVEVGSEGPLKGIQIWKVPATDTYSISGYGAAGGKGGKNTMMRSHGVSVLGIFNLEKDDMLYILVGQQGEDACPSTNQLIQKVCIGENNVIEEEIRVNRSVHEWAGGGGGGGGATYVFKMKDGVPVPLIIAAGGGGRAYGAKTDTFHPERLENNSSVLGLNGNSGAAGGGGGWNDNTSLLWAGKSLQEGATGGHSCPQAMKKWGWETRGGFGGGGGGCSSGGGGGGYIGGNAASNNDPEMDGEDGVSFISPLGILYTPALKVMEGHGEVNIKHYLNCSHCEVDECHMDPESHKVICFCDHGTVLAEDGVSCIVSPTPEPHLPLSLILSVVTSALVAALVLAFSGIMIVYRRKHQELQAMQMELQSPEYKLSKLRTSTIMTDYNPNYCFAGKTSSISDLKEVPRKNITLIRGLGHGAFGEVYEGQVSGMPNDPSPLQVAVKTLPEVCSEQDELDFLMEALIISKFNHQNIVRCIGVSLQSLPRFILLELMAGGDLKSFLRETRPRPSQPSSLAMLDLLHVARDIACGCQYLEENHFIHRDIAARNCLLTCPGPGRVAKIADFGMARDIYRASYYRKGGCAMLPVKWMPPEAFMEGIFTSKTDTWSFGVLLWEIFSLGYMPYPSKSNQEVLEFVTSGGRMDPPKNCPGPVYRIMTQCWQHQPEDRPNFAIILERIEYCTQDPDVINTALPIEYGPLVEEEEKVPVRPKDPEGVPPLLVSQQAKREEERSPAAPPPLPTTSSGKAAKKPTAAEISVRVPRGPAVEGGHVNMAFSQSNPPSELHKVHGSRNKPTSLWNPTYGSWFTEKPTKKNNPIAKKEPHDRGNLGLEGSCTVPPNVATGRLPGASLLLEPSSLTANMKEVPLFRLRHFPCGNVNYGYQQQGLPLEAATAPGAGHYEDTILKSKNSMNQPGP

[21] = Toxicity in BALB/c nude mouse xenografted with human MDA-MB-468 cells assessed as change in body weight at 30 mg/kg, iv administered once daily for 21 days […]; format: organism-based; conditions: in vivo, 504 h, time 21 day
[22] = target: LIM domain kinase 1 (Homo sapiens) (UniProt P53667); experiment: Inhibition of LIMK1 (unknown origin) assessed as residual activity at 1 uM relative to control
Chain of LIM domain kinase 1 (Homo sapiens) (P53667 whole entry, looked up, the tested form may be a part): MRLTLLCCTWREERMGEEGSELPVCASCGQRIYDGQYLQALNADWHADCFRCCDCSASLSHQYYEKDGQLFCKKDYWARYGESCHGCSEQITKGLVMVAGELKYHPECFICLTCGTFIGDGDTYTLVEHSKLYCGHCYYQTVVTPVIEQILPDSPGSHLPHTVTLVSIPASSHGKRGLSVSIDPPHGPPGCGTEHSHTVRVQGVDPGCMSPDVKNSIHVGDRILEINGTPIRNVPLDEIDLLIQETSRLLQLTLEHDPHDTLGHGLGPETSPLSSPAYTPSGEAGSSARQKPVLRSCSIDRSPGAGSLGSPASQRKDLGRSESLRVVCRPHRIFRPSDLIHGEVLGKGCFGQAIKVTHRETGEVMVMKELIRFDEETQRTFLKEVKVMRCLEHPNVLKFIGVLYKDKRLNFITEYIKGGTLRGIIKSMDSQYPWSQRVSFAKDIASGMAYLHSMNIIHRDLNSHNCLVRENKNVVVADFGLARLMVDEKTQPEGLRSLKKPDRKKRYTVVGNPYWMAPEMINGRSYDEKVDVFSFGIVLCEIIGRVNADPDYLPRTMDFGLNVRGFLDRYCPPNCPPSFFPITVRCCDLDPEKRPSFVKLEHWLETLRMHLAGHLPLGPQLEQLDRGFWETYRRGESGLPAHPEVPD

[23] = target: Serine/threonine-protein kinase MARK1 (Homo sapiens) (UniProt Q9P0L2); experiment: Inhibition of MARK1 (unknown origin) assessed as residual activity at 1 uM relative to control
[24] = test system: ALK tyrosine kinase receptor (Homo sapiens), Q9UM73 [S1206R]; experiment: Inhibition of ALK S1206R mutant (unknown origin) assessed as residual activity at 1 uM relative to control
[25] = target: Macrophage colony-stimulating factor 1 receptor (Homo sapiens) (UniProt P07333); experiment: Inhibition of FMS (unknown origin) assessed as residual activity at 1 uM relative to control
[26] = Clearance in Sprague-Dawley rat at 2 mg/kg, iv measured upto 24 hrs by LC-MS/MS analysis; format: ADME, organism-based; conditions: in vivo
[27] = MRT (0 to infinity) in Sprague-Dawley rat at 2 mg/kg, iv measured upto 24 hrs by LC-MS/MS analysis; format: ADME, organism-based; conditions: in vivo
[28] = target: NPM/ALK (Nucleophosmin/ALK tyrosine kinase receptor) (Homo sapiens) (UniProt Q9UM73+P06748); experiment: Inhibition of ALK-NPM1 (unknown origin) assessed as residual activity at 1 uM relative to control; format: protein assay
[29] = Tmax in Sprague-Dawley rat at 10 mg/kg, po measured upto 24 hrs by LC-MS/MS analysis; format: ADME, organism-based; conditions: in vivo
[30] = MRT (0 to infinity) in Sprague-Dawley rat at 10 mg/kg, po measured upto 24 hrs by LC-MS/MS analysis; format: ADME, organism-based; conditions: in vivo
[31] = test system: ALK tyrosine kinase receptor (Homo sapiens), Q9UM73 [G1269S]; experiment: Inhibition of ALK G1269S mutant (unknown origin) assessed as residual activity at 1 uM relative to control

Chain of Receptor-type tyrosine-protein kinase FLT3 (Homo sapiens) (P36888 whole entry): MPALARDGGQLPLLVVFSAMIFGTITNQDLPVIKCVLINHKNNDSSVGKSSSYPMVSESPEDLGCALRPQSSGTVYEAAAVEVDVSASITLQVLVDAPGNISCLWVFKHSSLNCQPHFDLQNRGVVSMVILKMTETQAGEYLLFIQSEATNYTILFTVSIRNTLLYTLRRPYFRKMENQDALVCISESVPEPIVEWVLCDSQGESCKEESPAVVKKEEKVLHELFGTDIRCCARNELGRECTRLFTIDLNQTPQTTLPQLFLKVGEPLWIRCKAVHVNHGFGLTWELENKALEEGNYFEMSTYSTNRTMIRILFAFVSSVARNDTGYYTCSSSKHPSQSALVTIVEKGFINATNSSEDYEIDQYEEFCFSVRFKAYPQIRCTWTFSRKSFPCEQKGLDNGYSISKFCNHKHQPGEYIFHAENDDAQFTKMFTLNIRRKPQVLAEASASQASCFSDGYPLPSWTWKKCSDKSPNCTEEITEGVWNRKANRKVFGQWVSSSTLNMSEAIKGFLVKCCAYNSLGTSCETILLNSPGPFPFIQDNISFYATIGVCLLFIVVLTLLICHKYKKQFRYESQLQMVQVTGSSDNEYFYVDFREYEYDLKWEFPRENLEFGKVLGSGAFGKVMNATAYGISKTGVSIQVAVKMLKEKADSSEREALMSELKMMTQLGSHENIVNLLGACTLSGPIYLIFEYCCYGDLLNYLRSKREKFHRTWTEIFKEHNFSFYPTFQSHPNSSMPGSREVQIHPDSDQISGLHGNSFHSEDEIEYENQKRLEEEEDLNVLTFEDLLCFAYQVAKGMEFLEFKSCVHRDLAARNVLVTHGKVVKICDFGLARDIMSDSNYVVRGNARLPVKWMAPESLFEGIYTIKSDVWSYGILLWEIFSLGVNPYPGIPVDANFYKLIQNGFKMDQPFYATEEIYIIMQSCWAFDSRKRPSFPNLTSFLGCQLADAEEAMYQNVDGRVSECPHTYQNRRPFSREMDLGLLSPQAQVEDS

Activity [1]: < 10%
remaining at 5 min [2]: 82.7%
Activity [3]: < 10%
MRT last at 24 h [4]: 1.11 h
Activity [5]: < 10%
Activity [6]: < 10%
remaining at 0.5 h [7]: 48.7%
bioavailability [8]: 3.95%
Activity [9]: < 10%
Activity [10]: < 10%
Activity (ALK-TPM3 (Homo sapiens)): < 10%
Activity [11]: < 10%
IC50 (MV4-11): 823 nM
Activity (ALK-TPM1 (Homo sapiens)): < 10%
half-life [12]: 49.5 min
Activity [13]: < 10%
Activity [14]: < 10%
IC50 (HT-29): > 10 µM
Activity [15]: < 10%
Activity [16]: < 10%
AUC(0-t) at 24 h [17]: 1050 ng·h/mL
C0 at 24 h [18]: 5240 ng/mL
IC50 (MDA-MB-468): 221 nM
Activity [20]: < 10%
Activity [22]: < 10%
Activity [23]: < 10%
Activity [24]: < 10%
Activity [25]: < 10%
clearance [26]: 32 mL/min/kg
MRT inf [27]: 21.2 min
Activity [28]: < 10%
Tmax [29]: 20 min
MRT inf [30]: 1.23 h
Activity [31]: < 10%
SMILES: CCc1cccc(CC)c1N1CCn2cc(-c3nc(Nc4ccc(N5CCN(C(C)=O)CC5)cc4OC)nc4[nH]ncc34)cc2C1=O
IC50 [19]: > 10 µM
Activity [21]: Non-Toxic
